# Results as given in ChEMBL document CHEMBL1145013, “Studies on the mechanisms of activation of indolequinone phosphoramidate prodrugs” (J Med Chem, 2003).
# Experiments:
# [1] = Half life in presence of glutathione; format: ADME; conditions: solution containing glutathione
# [2] = Half life in presence of sodium dimethyldithiocarbamate; format: ADME; conditions: solution containing sodium dimethyldithiocarbamate
Compound,half-life [1],half-life [2]
COC1=CC(=O)c2c(c(COP(N)(=O)N(CCBr)CCBr)cn2C)C1=O (stereo not drawn),35 min,14 min
COC1=CC(=O)c2c(cc(COP(N)(=O)N3CCOCC3)n2C)C1=O (stereo not drawn),716 min,659 min
COC1=CC(=O)c2c(cc(COP(N)(=O)N(CCBr)CCBr)n2C)C1=O (stereo not drawn),653 min,26 min
COC1=CC(=O)c2c(c(COP(N)(=O)N3CCOCC3)cn2C)C1=O (stereo not drawn),83 min,34 min
